From patent US4287189A, “O,S-Dialkyl O-oxysulfonylphenyl phosphorothiolates and phosphorodithioates” (priority 1980, dated 1981)
In brackets after ≈: the same amount, converted by molar mass.

Experiments:
Green peach aphid (GPA) = assay: Green peach aphid test, sprayed infested broccoli leaves, percent killed after 24 hours; type: in vivo; conditions: Myzus persicae, lethal concentration at which 50% of the pests are killed
Source text: (§1) A test solution containing 600 ppm of test compound is made by dissolving the test compound in a solvent (acetone:methanol, 1:1), adding surfactant and then water to give an acetone:methanol:water system of 10:10:80. A 1:1 mixture of an alkylarylpolyether-alcohol (commercially available under the trademark Triton X-155) and a modified phthalic glycerol alkyd resin (commercially available under the trademark Triton B-1956) can be utilized at the equivalent of one ounce per gallon of test solution as a surfactant.
(§2) For the mite test, infested bean (Phaseolus limeanus) leaf discs (1.25 inches in diameter) containing about 50 mites and for green peach aphid tests, infested broccoli (Brassica oleracea italica) leaves or portions thereof containing about 50 aphids are placed in a Petri dish lid on a moistened piece of cotton. The leaves are then sprayed with the test solution using a rotating turntable. They are held for 24 hours and then the percent killed is determined.

Southern armyworm (AW) = assay: Armyworm test, sprayed bean leaves infested with third instar larvae, percent killed after 48 hours; type: in vivo; conditions: Spodoptera eridania, lethal concentration at which 50% of the pests are killed
Source text: as §1
(§3) For the bean beetle and armyworm test, detached bean leaves on pieces of moistened filter paper are sprayed as above for the mite test in similar dishes and allowed to dry. One such dish is infested with 10 third instar Mexican bean beetle larvae, while another is infested with 10 third instar southern armyworm larvae. The dishes are covered. After holding for 48 hours, the percent killed is obtained.

Mexican bean beetle (BB) = assay: Bean beetle test, sprayed bean leaves infested with third instar larvae, percent killed after 48 hours; type: in vivo; conditions: Epilachna varivestis, lethal concentration at which 50% of the pests are killed
Source text: Mexican bean beetle (BB)
as §1, §3

Corn rootworm ova = assay: Southern corn rootworm ova test, sprayed filter paper, 6 days; type: in vivo, Diabrotica undecimpunctata howardi; conditions: 144 h, lethal concentration at which 50% of the pests are killed
Source text: (§4) Diabrotica undecimpunctata howardi
as §1
(§5) For tests involving the southern corn rootworm ova and larvae, two layers of 4.25 cm. filter papers are placed in small, Petri dishes, and sprayed on the turntable with a 600 ppm solution of the test compound and air dried. About 100 eggs in about one milliliter of water are pipetted onto the filter paper and the dishes covered. These are held for 6 days and examined under the microscope. The percent kill values for ova and larvae are determined.

[1] = system: Two-spotted spider mite (TSM); assay: Mite test, sprayed infested bean leaf discs, percent killed after 24 hours; type: in vivo; conditions: Tetranychus urticae, foliar, lethal concentration at which 50% of the pests are killed
Source text: Two-spotted spider mite
as §1, §2

Boll weevil (BW) = assay: Boll weevil test, sprayed jars with adult boll weevils, percent kill after 48 hours; type: in vivo; conditions: Anthonomus grandis, lethal concentration at which 50% of the pests are killed
Source text: as §1
For the boll weevil and house fly tests, half pint glass canning jars with a screened top are used. Food is supplied for the boll weevil (apple) and for the house fly (sugar water). The test insects consist of 10 adult boll weevils and 20 adult house flies. The jars containing the insects are sprayed using the turntable. The percent kill of boll weevil is determined 48 hours after the application. In the house fly test, a percent knockdown is determined one hour after application, the percent kill after 24 hours.

Corn rootworm larva = assay: Southern corn rootworm larvae test, sprayed filter paper, 6 days; type: in vivo, Diabrotica undecimpunctata howardi; conditions: 144 h, lethal concentration at which 50% of the pests are killed
Source text: as §4, §1, §5

SMILES | LC50 (Green peach aphid (GPA)) [µg/mL] | LC50 (Southern armyworm (AW)) [µg/mL] | LC50 (Mexican bean beetle (BB)) [µg/mL] | LC50 (Corn rootworm ova) [µg/mL] | LC50 [1] [µg/mL] | LC50 (Boll weevil (BW)) [µg/mL] | LC50 (Corn rootworm larva) [µg/mL]
CCCSP(=S)(OCC)Oc1ccc(S(=O)(=O)Oc2ccccc2)cc1 (centres unmarked) [XIII, O-Ethyl O-[4-(phenoxysulfonyl)phenyl]S-n-propyl phosphorodithiolate] | 38 (≈ 87.9 µM) | 75 (≈ 173 µM) | 150 (≈ 347 µM) | > 600 | 8 (≈ 18.5 µM) | 150 (≈ 347 µM) | 10 (≈ 23.1 µM)
CCCSP(=O)(OCC)Oc1ccc(S(=O)(=O)Oc2ccccc2)cc1 (centres unmarked) [Example II, O-Ethyl O-[4-(phenoxysulfonyl)phenyl]S-n-propyl phosphorothiolate] | 7.5 (≈ 18 µM) | 32 (≈ 76.8 µM) | 75 (≈ 180 µM) | > 600 | 9.8 (≈ 23.5 µM) | 345 (≈ 828 µM) | 32 (≈ 76.8 µM)
CCCSP(=O)(OCC)Oc1ccc(S(=O)(=O)Oc2ccc(Cl)cc2)cc1 (centres unmarked) [IV, O-[4-(4'-chlorophenoxysulfonyl)phenyl]O-ethyl S-n-propyl phosphorothiolate] | 2.5 (≈ 5.54 µM) | 75 (≈ 166 µM) | 75 (≈ 166 µM) | 142 (≈ 315 µM) | 2.9 (≈ 6.43 µM) | 138 (≈ 306 µM) | 4.1 (≈ 9.09 µM)
CCCSP(=O)(OCC)Oc1ccc(S(=O)(=O)Oc2ccc(C#N)cc2)cc1 (centres unmarked) [VI, O-[4-(4'-cyanophenoxysulfonyl)phenyl]O-ethyl S-n-propyl phoshorothiolate] | 18 (≈ 40.8 µM) | 41 (≈ 92.9 µM) | 49 (≈ 111 µM) | > 600 | 6.8 (≈ 15.4 µM) | > 600 | 38 (≈ 86.1 µM)
CCCSP(=O)(OCC)Oc1ccc(S(=O)(=O)Oc2ccc(SC)cc2)cc1 (centres unmarked) [VII, O-Ethyl-O-[4-(4'-methylthiophenoxysulfonyl)phenyl]S-n-propyl phosphorothiolate] | 6.4 (≈ 13.8 µM) | 27 (≈ 58.4 µM) | 162 (≈ 350 µM) | > 600 | 2.4 (≈ 5.19 µM) | 550 (≈ 1190 µM) | 130 (≈ 281 µM)
CCCCSP(=O)(OCC)Oc1ccc(S(=O)(=O)Oc2ccccc2)cc1 (centres unmarked) [X] | 8.6 (≈ 20 µM) | 41 (≈ 95.2 µM) | 27 (≈ 62.7 µM) | > 600 | 5 (≈ 11.6 µM) | > 600 | 75 (≈ 174 µM)
CCOP(=O)(Oc1ccc(S(=O)(=O)Oc2ccccc2)cc1)SCC(C)C (centres unmarked) [XI, O-Ethyl S-isobutyl O-[4-(phenoxysulfonyl)phenyl]phosphorothiolate] | 1.3 (≈ 3.02 µM) | 49 (≈ 114 µM) | 26 (≈ 60.4 µM) | > 600 | 6.6 (≈ 15.3 µM) | 75 (≈ 174 µM) | 142 (≈ 330 µM)
CCCSP(=O)(OCC)Oc1ccc(S(=O)(=O)Oc2ccc([N+](=O)[O-])cc2)cc1 (centres unmarked) [III, O-Ethyl-O-[4-(4'-nitrophenoxysulfonyl)phenyl]S-n-propyl phosphorothiolate] | 6.2 (≈ 13.4 µM) | 45 (≈ 97.5 µM) | 75 (≈ 163 µM) | > 600 | 5 (≈ 10.8 µM) | > 600 | 75 (≈ 163 µM)
CCCSP(=O)(OC)Oc1ccc(S(=O)(=O)Oc2ccc([N+](=O)[O-])cc2)cc1 (centres unmarked) [XII, O-Methyl O-[4-(4'-nitrophenoxysulfonyl)phenyl]S-n-propyl phosphorothiola] | 26 (≈ 58.1 µM) | 45 (≈ 101 µM) | 54 (≈ 121 µM) | > 600 | 6.6 (≈ 14.8 µM) | 500 (≈ 1120 µM) | 75 (≈ 168 µM)
CCCSP(=O)(OCC)Oc1ccc(S(=O)(=O)Oc2ccc(C)cc2)cc1 (centres unmarked) [VIII, O-Ethyl-O-[4-(4'-methylphenoxysulfonyl)phenyl]S-n-propyl phosphorothiolate] | 7.5 (≈ 17.4 µM) | 75 (≈ 174 µM) | 150 (≈ 348 µM) | 550 (≈ 1280 µM) | 20 (≈ 46.5 µM) | > 600 | 33 (≈ 76.7 µM)
CCOP(=O)(Oc1ccc(S(=O)(=O)Oc2ccccc2)cc1)SC(C)CC (centres unmarked) [IX, S-sec-Butyl O-ethyl O-[4-(phenoxysulfonyl)phenyl]phosphorothiolate] | 2.8 (≈ 6.5 µM) | 45 (≈ 105 µM) | 15 (≈ 34.8 µM) | 230 (≈ 534 µM) | 5.8 (≈ 13.5 µM) | 75 (≈ 174 µM) | 8.4 (≈ 19.5 µM)
